Assay results as given in patent publication US4251628A, “Substrates for angiotensin converting enzyme” (priority 1978, dated 1981).
Where two headings read alike, the source gives them in different places. Ends that are not written are not given here. Peptide text beside a SMILES is read from it.

Assays:
[1] = target: T1, angiotensin converting enzyme (ACE) (Homo sapiens, UniProt P12821); assay: Hydrolysis of ^3H-BenzoylProPheArg by normal human serum: effect of various compounds; type: biochemical; conditions: ^3H-BenzoylProPheArg substrate
T1 construct: Serum was prepared from fresh whole blood by standard techniques; from tissue; host or cells: serum (unfractionated)
Description: Hydrolysis of […] ^3 H-BenzoylProPheArg using the standard reaction procedure of Example 1 with normal human serum as the ACE source was measured in the absence and in the presence of competing substrates and an inhibitor.

[2] = target: T2, serum angiotensin converting enzyme (ACE) (Homo sapiens, UniProt P12821); assay: biochemical; type: biochemical; conditions: for ACE Activity as % of control: 60 min; for Mode of inhibition (in words): ACE catalyzed hydrolysis of ^3H-HipGlyGly
T2 construct: the activity observed with the present assay method in human serum is identical to ACE; from tissue; host or cells: human serum (unfractionated)
Description: The reaction buffer contains 0.05 M Hepes, 0.1 M sodium chloride and 0.6 M sodium sulphate at pH 8.0. (Pepes is N-2-Hydroxyethyl piperazine N'-2-ethane sulfonic acid.) The substrate, ^3 H-HipGlyGly was dissolved in reaction buffer at a concentration of 16 mM and a specific radioactivity of about 0.15 millicuries/millimole. Serum was prepared from fresh whole blood by standard techniques. […] Hemolyzed samples were not used in the assay. […] For the assay, 50 μl. of serum was diluted with 200 μl. of reaction buffer. All the reactions were carried out in glass tubes due to the potentially destructive action of ethyl acetate on plastic.
(§1) The reaction mixture was composed of 50 μl. of diluted serum, an appropriate amount of substrate solution depending on the final substrate concentration desired, and reaction buffer sufficient to give a total reaction volume of 100 μl. All reaction tubes were incubated for 60 minutes at 37° C. Reactions were terminated by the addition of 1.0 ml. of 0.1 N hydrochloric acid. The reaction mixture was then extracted with 1.0 ml. ethyl acetate, by rotary agitation for 4-5 seconds. The phases were separted by centrifugation at 1000×G for ten minutes. A 0.5 ml. sample of the ethyl acetate (upper) layer was removed and tranferred to a scintillation vial containing 10 ml. scintillation fluid. (Riafluor, Trademark, New England Nuclear Corp., Boston, Mass.)
A control determination of background radioactivity was made using 50 μl. of reaction buffer instead of diluted serum in the reaction mixture. The purpose of this control was to determine the number of total counts attributable to background radiation, non-specific release of hippuric acid and the presence of unreacted substrate in the ethyl acetate phase. […] Total radioactivity was determined by counting an amount of substrate equal to that used in the reaction mixture directly in the scintillation counter.
(§2) Reaction velocity, in terms of nanomoles of product formed per minute per ml of serum was calculated according to the following formula: [formula] In this formula, "nmoles" means nanomoles, "min" means minutes, "ml" means milliliters and "cpm" means radioactivity counts per minute. The factor of 2 is a correction for the aliquot size.
In this series of reactions, the procedure described in Ex. 1 was followed except that the substrate concentration was 8 mM throughout and specific inhibitor substances were added at the indicated final concentration. Bradykinin, angiotensin I, BPP5α and EDTA have been described hereinabove. BPP9α (SQ20881) is a nonapeptide from snake venom having the sequence <GluTryProArgProGlnIleProPro.
*Standard assay conditions as described in Example 1 were used.
**ΔCPM = (CPM of compound CPM of Blank)

[3] = Extraction (partition) into ethyl acetate; type: physicochemical
Text: (§3) Reaction conditions optimal for carrying out an ACE catalyzed hydrolysis of a substrate of the present invention are the same as have been previously described for substrates known in the prior art. Detailed studies of optimal conditions using HipGlyGly as substrate have been reported by Dorer, et al. The pH optimum is approximately 8.0 although greater than 50% maximal activity is obtained in the pH range 7.0-9.0, in the presence of 1 M NaCl. […] The relationship between the chloride requirement and the ionic strength requirement has not been fully characterized. […] Phosphate is inhibitory. Hepes, bicine and barbital buffers are suitable for use but Hepes is preferred because it provides maximum activity. Preferred conditions of buffer composition, ionic strength, pH and temperature are described in Example 1. […] The pH range for usable enzyme activity is from pH 6.5 to pH 8.7, with a broad plateau of maximal activity ranging from pH 7.2 to pH 8.5. Optimal substrate concentration depends upon the apparent Km, for the substrate compared with the Km's of possible competing substances in the sample. A substrate having a relatively low Km, such as ^3 H-benzoylProPheArg (Km 2×10^-4 M) could be suitably used at a concentration less than its Km. A substrate having a higher Km might better be used at a concentration greater than its Km. […] Because its Km is the lowest of any of the substrates of the present invention, ^3 H-benzoylProPheArg is the most preferred substrate for assays where ACE activity is low and maximum sensitivity is desired. In addition to being less sensitive to competitive inhibition, assays carried out with this substrate are potentially able to measure lower levels of ACE than the other substrates disclosed herein. Additionally, its partition behavior in an aprotic organic solvent is extremely favorable: only about 3% entered ethyl acetate in a preliminary extraction experiment. The remnant product Benzoylproline was about 90% extracted.
The remnant reaction product may be extracted from the reaction mixture by an aprotic organic solvent which affords a reasonably quantitative separation of product from substrate. The use of solvents which may interfere with the counting process is to be avoided. Ethyl acetate is preferred. Approximately 91% of ^3 H-Hippuric acid is extracted into ethyl acetate. Extraction may be carried out by any suitable means familiar to those skilled in the art, such as shaking, agitating, mixing and the like. Separation of the phases is conveniently accomplished by centrifugation. Centrifugation at 1000×G for ten minutes is preferred, either at room temperature or in a refrigerated centrifuge. In some cases, an emulsion will form which can be separated by a longer centrifugation step.
A control determination of background radioactivity was made using 50 μl. of reaction buffer instead of diluted serum in the reaction mixture. The purpose of this control was to determine the number of total counts attributable to background radiation, non-specific release of hippuric acid and the presence of unreacted substrate in the ethyl acetate phase. Less than 7% of the ^3 H-HipGly Gly entered the organic phase. Total radioactivity was determined by counting an amount of substrate equal to that used in the reaction mixture directly in the scintillation counter. […]

[4] = test system: angiotensin converting enzyme (ACE); conditions: buffer component / additive; cited from earlier work
[5] = target: T1, angiotensin converting enzyme (ACE); assay: ACE assay: hydrolysis of ^3H-HipGlyGly by human serum, Lineweaver-Burke Km; type: biochemical; conditions: when about 20% or more of the substrate has been hydrolyzed
Description: The following sample illustrates the preferred assay method, the sensitivity of the assay and the Km for ^3 H-HipGlyGly. The reaction buffer contains 0.05 M Hepes, 0.1 M sodium chloride and 0.6 M sodium sulphate at pH 8.0. (Pepes is N-2-Hydroxyethyl piperazine N'-2-ethane sulfonic acid.) The substrate, ^3 H-HipGlyGly was dissolved in reaction buffer at a concentration of 16 mM and a specific radioactivity of about 0.15 millicuries/millimole. Serum was prepared from fresh whole blood by standard techniques. […] Hemolyzed samples were not used in the assay. Serum samples could be stored at least for one week at 2° C. to 8° C. or for at least 8 weeks frozen, prior to assaying. For the assay, 50 μl. of serum was diluted with 200 μl. of reaction buffer. All the reactions were carried out in glass tubes due to the potentially destructive action of ethyl acetate on plastic.
as §1
A control determination of background radioactivity was made using 50 μl. of reaction buffer instead of diluted serum in the reaction mixture. The purpose of this control was to determine the number of total counts attributable to background radiation, non-specific release of hippuric acid and the presence of unreacted substrate in the ethyl acetate phase. Less than 7% of the ^3 H-HipGly Gly entered the organic phase. Total radioactivity was determined by counting an amount of substrate equal to that used in the reaction mixture directly in the scintillation counter.
as §2, with “size. In the case where a significant fraction of substrate has been hydrolyzed, and the substrate in one which is more soluble in the organic phase, as for example, ^125 I-HPPGlyGlyGly, a modified formula is used to take account of the decreasing amount of substrate as the reaction progresses: [formula]” for “size.”
Reciprocal values of initial substrate concentration and reaction velocity were calculated and graphed according to the method of Lineweaver and Burke, as shown in FIG. 1. A straight line was obtained, which intercepted the ordinate at a value equal to the reciprocal of the maximum velocity of the enzyme reaction and intercepted the abcissa at a value equal to the negative reciprocal of the apparent Michaelis constant. […] It can be seen that reaction velocities as low as 12 nanomoles of substrate hydrolyzed per minute per ml. of serum can readily be measured.

[6] = test system: angiotensin converting enzyme (ACE); assay: ACE-catalyzed hydrolysis: Km, pH, chloride and buffer dependence; type: biochemical
Text: as §3

[7] = 1 h, read-out: ACE Activity as % of control

T2 sequence (P12821 30-1232 limits assumed): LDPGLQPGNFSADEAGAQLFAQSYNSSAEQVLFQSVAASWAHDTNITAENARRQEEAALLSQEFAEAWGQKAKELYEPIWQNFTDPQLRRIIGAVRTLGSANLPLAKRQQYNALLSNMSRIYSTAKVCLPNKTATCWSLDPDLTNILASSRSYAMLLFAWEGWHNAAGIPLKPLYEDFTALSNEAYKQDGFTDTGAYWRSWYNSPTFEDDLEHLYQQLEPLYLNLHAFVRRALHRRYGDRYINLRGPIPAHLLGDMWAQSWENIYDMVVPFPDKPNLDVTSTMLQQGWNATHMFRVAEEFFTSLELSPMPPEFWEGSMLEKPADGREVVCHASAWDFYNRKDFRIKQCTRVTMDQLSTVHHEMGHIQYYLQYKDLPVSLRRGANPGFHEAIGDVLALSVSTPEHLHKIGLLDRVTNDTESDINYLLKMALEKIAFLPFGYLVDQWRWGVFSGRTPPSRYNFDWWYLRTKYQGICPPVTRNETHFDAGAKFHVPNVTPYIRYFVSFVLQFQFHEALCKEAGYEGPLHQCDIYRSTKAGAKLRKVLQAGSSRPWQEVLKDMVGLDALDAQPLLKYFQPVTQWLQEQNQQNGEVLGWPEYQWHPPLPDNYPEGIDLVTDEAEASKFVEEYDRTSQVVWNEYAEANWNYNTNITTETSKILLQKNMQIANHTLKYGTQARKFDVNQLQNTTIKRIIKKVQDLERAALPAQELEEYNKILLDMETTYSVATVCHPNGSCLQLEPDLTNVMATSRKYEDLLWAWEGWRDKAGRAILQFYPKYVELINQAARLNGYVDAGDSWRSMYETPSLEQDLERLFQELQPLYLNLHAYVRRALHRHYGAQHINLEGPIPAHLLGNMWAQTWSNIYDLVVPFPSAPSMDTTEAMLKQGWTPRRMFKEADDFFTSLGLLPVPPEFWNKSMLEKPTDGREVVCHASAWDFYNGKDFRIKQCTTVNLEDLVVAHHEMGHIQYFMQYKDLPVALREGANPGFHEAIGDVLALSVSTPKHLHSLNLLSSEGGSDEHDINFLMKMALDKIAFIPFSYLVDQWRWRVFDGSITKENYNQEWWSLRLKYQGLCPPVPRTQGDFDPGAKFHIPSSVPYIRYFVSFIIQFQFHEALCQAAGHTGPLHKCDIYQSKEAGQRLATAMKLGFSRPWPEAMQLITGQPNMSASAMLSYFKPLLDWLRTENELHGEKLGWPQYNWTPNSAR
T1 sequence (P12821 30-1232 limits assumed): as above

CC[C@H](C)[C@H](NC(=O)[C@H](CCC(N)=O)NC(=O)[C@@H]1CCCN1C(=O)[C@H](CCCNC(=N)N)NC(=O)[C@@H]1CCCN1C(=O)[C@H](Cc1c[nH]c2ccccc12)NC(=O)[C@@H]1CCC(=O)N1)C(=O)N1CCC[C@H]1C(=O)N1CCC[C@H]1C(=O)O [BPP9α (SQ20881)]
remaining activity at 33 µM ([1]; 3.3 × 10^-5 M, read-out: ACE Activity As % of Control): 28%
Δ CPM (counts per minute) ([2]; 2.8 × 10^-9 M, substrate 8 mM): 2200 counts per minute
Δ CPM (counts per minute) ([2]; 9 × 10^-8 M, substrate 8 mM): 1410 counts per minute
remaining activity at 0.0028 µM [2, 7]: 58%
remaining activity at 0.09 µM [2, 7]: 37%

O=C(O)[C@@H]1CCCN1C(=O)c1ccccc1 [Benzoylproline]
Fraction extracted into ethyl acetate [3]: about 90%

O=C(O)CN(CCN(CC(=O)O)CC(=O)O)CC(=O)O [EDTA, Ethylene diamine tetraacetic acid]
Inhibition of ACE (in words) [4]: potent inhibitor of ACE
remaining activity at 1000 µM ([1]; 1 × 10^-3 M, read-out: ACE Activity As % of Control): 23%
Δ CPM (counts per minute) [2]: 1178
remaining activity at 900 µM [2, 7]: 31%

NCC(=O)NCC(=O)O [GlyGly] (H-Gly-Gly-OH)
Product inhibition (in words) [5]: Product inhibition has been observed

[3H]c1ccc(C(=O)N2CCC[C@H]2C(=O)N[C@@H](Cc2ccccc2)C(=O)N[C@@H](CCCNC(=N)N)C(=O)O)cc1 [^3 H-BenzoylProPheArg, ^3 H-benzoylprolylphenylalanylarginine]
Km ([6]; ^3H-benzoylProPheArg as substrate): 200 µM
Chloride / ionic strength requirement of the ACE-catalyzed hydrolysis ([6]; by substrate): chloride ions and high total ionic strength do not greatly affect the rate
Fraction extracted into ethyl acetate [3]: about 3%

[3H]c1ccc(C(=O)NCC(=O)O)cc1 [^3 H-Hippuric acid, Hippuric acid (Benzoyl glycine)]
Fraction extracted into ethyl acetate [3]: Approximately 91%

Angiotensin I: decapeptide angiotensin I, having the sequence AspArgValTyrIleHisProPheHisLeu (DRVYIHPFHL; printed: AspArgValTyrIleHisProPheHisLeu)
ACE Activity As % of Control ([1]; 7.1 × 10^-5 M, 71 µM): 27 % of Control
Δ CPM (counts per minute) ([2]; 4.5 × 10^-5 M, substrate 8 mM): 1278 counts per minute
ACE Activity as % of control ([2]; 4.5 × 10^-5 M, substrate 8 mM, 45 µM): 34 % of control
Δ CPM (counts per minute) ([2]; 9 × 10^-6 M, substrate 8 mM): 2557 counts per minute
ACE Activity as % of control ([2]; 9 × 10^-6 M, substrate 8 mM, 9 µM): 67 % of control
Δ CPM (counts per minute) ([2]; 9 × 10^-7 M, substrate 8 mM): 3057 counts per minute
ACE Activity as % of control ([2]; 9 × 10^-7 M, substrate 8 mM, 0.9 µM): 81 % of control
Mode of inhibition (in words) [2]: competitive inhibitors

Phosphate
Inhibition of ACE (in words) [4]: inhibitory

RPPGFSPFR [Bradykinin]
remaining activity at 82 µM ([1]; 8.2 × 10^-5 M, read-out: ACE Activity As % of Control): 21%
Δ CPM (counts per minute) ([2]; 2.7 × 10^-5 M, substrate 8 mM): 1553 counts per minute
Δ CPM (counts per minute) ([2]; 2.7 × 10^-6 M, substrate 8 mM): 3165 counts per minute
Δ CPM (counts per minute) ([2]; 2.7 × 10^-7 M, substrate 8 mM): 3267 counts per minute
remaining activity at 0.27 µM [2, 7]: 86%
remaining activity at 2.7 µM [2, 7]: 83%
remaining activity at 27 µM [2, 7]: 41%
Mode of inhibition (in words) [2]: competitive inhibitors
